Measurements taken from ChEMBL document CHEMBL5137044, “Expansion of the S-CN-DABO scaffold to exploit the impact on inhibitory activities against the non-nucleoside HIV-1 reverse transcriptase” (Eur J Med Chem, 2022).

What was measured:
[1] = Fold resistance, ratio of EC50 for antiviral activity against drug-resistant HIV-1 Y188L mutant infected in human MT4 cells to EC50 for antiviral activity against […] HIV-1 infected in human MT4 cells; type: functional
[2] = test system: Human immunodeficiency virus 1; experiment: Antiviral activity against drug-resistant HIV-1 L100I mutant infected in human MT4 cells assessed as reduction in virus-induced cytopathic effect incubated for 5 days by MTT assay; type: functional, organism-based; settings: Human immunodeficiency virus 1, L100I mutant, MT4, 120 h
[3] = test system: Human immunodeficiency virus 1; experiment: Antiviral activity against drug-resistant HIV-1 E138K mutant infected in human MT4 cells assessed as reduction in virus-induced cytopathic effect incubated for 5 days by MTT assay; type: functional, organism-based; settings: Human immunodeficiency virus 1, E138K mutant, MT4, 120 h
[4] = Fold resistance, ratio of EC50 for antiviral activity against drug-resistant HIV-1 L100I mutant infected in human MT4 cells to EC50 for antiviral activity against […] HIV-1 infected in human MT4 cells; type: functional
[5] = Cytotoxicity against human MT4 cells assessed as cell growth inhibition incubated for 5 days by MTT assay; type: toxicity, cell-based; settings: time 5 day
[6] = target: Human immunodeficiency virus type 1 reverse transcriptase (Human immunodeficiency virus 1, UniProt Q72547); experiment: Inhibition of recombinant wild-type p66/p51 HIV-1 reverse transcriptase incubated for 40 mins by picogreen dye-based spectrofluorometric analysis
[7] = test system: Human immunodeficiency virus 1; experiment: Antiviral activity against drug-resistant HIV-1 Y181C mutant infected in human MT4 cells assessed as reduction in virus-induced cytopathic effect incubated for 5 days by MTT assay; type: functional, organism-based; settings: Human immunodeficiency virus 1, Y181C mutant, MT4, 120 h
[8] = Fold resistance, ratio of EC50 for antiviral activity against drug-resistant HIV-1 E138K mutant infected in human MT4 cells to EC50 for antiviral activity against […] HIV-1 infected in human MT4 cells; type: functional
[9] = Fold resistance, ratio of EC50 for antiviral activity against drug-resistant HIV-1 Y181C mutant infected in human MT4 cells to EC50 for antiviral activity against […] HIV-1 infected in human MT4 cells; type: functional
[10] = test system: Human immunodeficiency virus 1; experiment: Antiviral activity against […] HIV-1 infected in human MT4 cells assessed as reduction in virus-induced cytopathic effect incubated for 5 days by MTT assay; type: functional, organism-based; settings: Human immunodeficiency virus 1, MT4, 120 h
[11] = test system: Human immunodeficiency virus 1; experiment: Antiviral activity against drug-resistant HIV-1 K103 N mutant infected in human MT4 cells assessed as reduction in virus-induced cytopathic effect incubated for 5 days by MTT assay; type: functional, organism-based; settings: Human immunodeficiency virus 1, K103 N mutant, MT4, 120 h
[12] = Fold resistance, ratio of EC50 for antiviral activity against drug-resistant HIV-1 K103 N mutant infected in human MT4 cells to EC50 for antiviral activity against […] HIV-1 infected in human MT4 cells; type: functional
[13] = Selectivity index, ratio of CC50 for human MT4 cells to EC50 for antiviral activity against NNRTI resistant HIV-1 infected in human MT4 cells; type: toxicity, cell-based; settings: read-out: Ratio CC50/EC50
[14] = test system: Human immunodeficiency virus 1; experiment: Antiviral activity against drug-resistant HIV-1 Y188L mutant infected in human MT4 cells assessed as reduction in virus-induced cytopathic effect incubated for 5 days by MTT assay; type: functional, organism-based; settings: Human immunodeficiency virus 1, Y188L mutant, MT4, 120 h

Structure (SMILES): Cc1c(C(C#N)c2cccc3c2OCO3)nc(SC(C)C)[nH]c1=O (stereo unspecified)
- Ratio EC50 [1]: >214
- EC50 [2]: 10 µM
- EC50 [3]: 1.94 µM
- Ratio EC50 [4]: 22
- CC50 at 120 h [5]: 96.5 µM
- IC50 [6]: 1.35 µM
- EC50 [7]: 50.7 µM
- Ratio EC50 [8]: 4
- Ratio EC50 [9]: 113
- EC50 [10]: 0.45 µM
- EC50 [11]: > 96.5 µM
- Ratio EC50 [12]: >214
- selectivity ratio [13]: 213
- EC50 [14]: > 96.5 µM

Structure (SMILES): Cc1c(C(C#N)c2cc(F)cc(F)c2)nc(SC(C)C)[nH]c1=O (stereo unspecified)
- Ratio EC50 [1]: >396
- EC50 [2]: 18.5 µM
- EC50 [3]: 1.91 µM
- Ratio EC50 [4]: 36
- CC50 at 120 h [5]: 202 µM
- IC50 [6]: 1.29 µM
- EC50 [7]: 8.7 µM
- Ratio EC50 [8]: 4
- Ratio EC50 [9]: 17
- EC50 [10]: 0.51 µM
- EC50 [11]: 51.5 µM
- Ratio EC50 [12]: 101
- selectivity ratio [13]: 394
- EC50 [14]: > 202 µM

Structure (SMILES): Cc1cc(C)cc(C(C#N)c2nc(SC(C)C)[nH]c(=O)c2C)c1 (stereo unspecified)
- Ratio EC50 [1]: 702
- EC50 [2]: 2.29 µM
- EC50 [3]: 0.45 µM
- Ratio EC50 [4]: 29
- CC50 at 120 h [5]: 220 µM
- IC50 [6]: 0.226 µM
- EC50 [7]: 4.11 µM
- Ratio EC50 [8]: 6
- Ratio EC50 [9]: 52
- EC50 [10]: 0.079 µM
- EC50 [11]: 9.05 µM
- Ratio EC50 [12]: 115
- selectivity ratio [13]: 2770
- EC50 [14]: 55.5 µM

Structure (SMILES): Cc1c(C(C#N)c2cc(Cl)cc(C(F)(F)F)c2)nc(SC(C)C)[nH]c1=O (stereo unspecified)
- Ratio EC50 [1]: >6
- EC50 [2]: > 23.1 µM
- EC50 [3]: 10.9 µM
- Ratio EC50 [4]: >6
- CC50 at 120 h [5]: 23.1 µM
- IC50 [6]: 3.52 µM
- EC50 [7]: > 23.1 µM
- Ratio EC50 [8]: 3
- Ratio EC50 [9]: >6
- EC50 [10]: 4.17 µM
- EC50 [11]: > 23.1 µM
- Ratio EC50 [12]: >6
- selectivity ratio [13]: 6
- EC50 [14]: > 23.1 µM

Structure (SMILES): Cc1c(C(C#N)c2cccc(Br)c2)nc(SC(C)C)[nH]c1=O (stereo unspecified)
- Ratio EC50 [1]: >445
- EC50 [2]: 7.37 µM
- EC50 [3]: 0.71 µM
- Ratio EC50 [4]: 26
- CC50 at 120 h [5]: 125 µM
- IC50 [6]: 0.57 µM
- EC50 [7]: 6.43 µM
- Ratio EC50 [8]: 3
- Ratio EC50 [9]: 23
- EC50 [10]: 0.28 µM
- EC50 [11]: 47.6 µM
- Ratio EC50 [12]: >170
- selectivity ratio [13]: 443
- EC50 [14]: > 125 µM

Structure (SMILES): Cc1c(C(C#N)c2cc(Cl)cc(Cl)c2)nc(SC(C)C)[nH]c1=O (stereo unspecified)
- Ratio EC50 [1]: >44
- EC50 [2]: > 13.2 µM
- EC50 [3]: 4.22 µM
- Ratio EC50 [4]: >20
- CC50 at 120 h [5]: 28.9 µM
- IC50 [6]: 0.479 µM
- EC50 [7]: 11.4 µM
- Ratio EC50 [8]: 6
- Ratio EC50 [9]: 17
- EC50 [10]: 0.66 µM
- EC50 [11]: > 28.9 µM
- Ratio EC50 [12]: >44
- selectivity ratio [13]: 44
- EC50 [14]: > 28.9 µM

Structure (SMILES): Cc1cccc(C)c1C(C#N)c1nc(SC(C)C)[nH]c(=O)c1C (stereo unspecified)
- Ratio EC50 [1]: >73
- EC50 [2]: > 68.1 µM
- EC50 [3]: 3.48 µM
- Ratio EC50 [4]: >73
- CC50 at 120 h [5]: 68.1 µM
- IC50 [6]: 6.59 µM
- EC50 [7]: > 68.1 µM
- Ratio EC50 [8]: 4
- Ratio EC50 [9]: >73
- EC50 [10]: 0.93 µM
- EC50 [11]: > 68.1 µM
- Ratio EC50 [12]: >73
- selectivity ratio [13]: 73
- EC50 [14]: > 68.1 µM

Structure (SMILES): Cc1c(C(C#N)c2ccc(C(F)(F)F)cc2)nc(SC(C)C)[nH]c1=O (stereo unspecified)
- Ratio EC50 [1]: >8
- EC50 [2]: > 39.8 µM
- EC50 [3]: 9.11 µM
- Ratio EC50 [4]: >8
- CC50 at 120 h [5]: 39.8 µM
- IC50 [6]: 13.3 µM
- EC50 [7]: > 39.8 µM
- Ratio EC50 [8]: 2
- Ratio EC50 [9]: >8
- EC50 [10]: 5.3 µM
- EC50 [11]: > 39.8 µM
- Ratio EC50 [12]: >8
- selectivity ratio [13]: 8
- EC50 [14]: > 39.8 µM

Structure (SMILES): Cc1c(C(C#N)c2ccccc2Cl)nc(SC(C)C)[nH]c1=O (stereo unspecified)
- Ratio EC50 [1]: 807
- EC50 [2]: 1.78 µM
- EC50 [3]: 0.08 µM
- Ratio EC50 [4]: 26
- CC50 at 120 h [5]: 89.2 µM
- IC50 [6]: 0.079 µM
- EC50 [7]: 3.47 µM
- Ratio EC50 [8]: 1
- Ratio EC50 [9]: 51
- EC50 [10]: 0.068 µM
- EC50 [11]: 9.91 µM
- Ratio EC50 [12]: 146
- selectivity ratio [13]: 1320
- EC50 [14]: 54.9 µM
